Among the test systems are MCF7 breast; HCT-15 colon; OVCAR-5 ovarian; U251 CNS; UACC-257 melanoma; NCI-H23 lung; MDA-MB-435; K-562 leukemia; T-47D breast; COLO 205 colon; MOLT-4 leukemia; CAKI-1 renal; OVCAR-8 ovarian; MDA-MB-231 breast; PC-3 prostate; CCRF-CEM leukemia; BT-549 breast; OVCAR-4 ovarian; SNB-75 CNS.
Common to all, as to assay: NCI anticancer screen, dose series, 48 h

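A five-concentration, 48-hour dose response in 96-well plates underlies each endpoint, interpolated linearly between surrounding concentrations. TGI denotes the concentration required for complete inhibition of growth.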 Where a SMILES comes first, the peptide text is derived from it. The star is where a group is joined. Cbz = O=C(OCc1ccccc1)*; Boc = CC(C)(C)OC(=O)*; OBn = c1ccc(CO*)cc1 Bounds are passed on as bounds.

For `O=C1Nc2ccccc2/C1=C\c1c(Cl)[nH]c2ccccc12`, the TGI is 10.6 µM in the assay on MCF7 breast; 17.5 µM in the assay with HCT-15 colon; 5.05 µM in the assay with OVCAR-5 ovarian; 9.15 µM in the assay with U251 CNS; 17 µM with UACC-257 melanoma; 16.1 µM in the assay with NCI-H23 lung. Further, the TGI in the assay with MDA-MB-435 was 0.417 µM; with K-562 leukemia it was 7.49 µM; with T-47D breast, > 100 µM; with COLO 205 colon, 1.23 µM; in the assay on MOLT-4 leukemia it was 12.6 µM; in the assay on CAKI-1 renal it was 7.77 µM. In addition, the TGI in the assay with OVCAR-8 ovarian amounted to 8.51 µM; in the assay on MDA-MB-231 breast, 14.3 µM; in the assay on PC-3 prostate, 3.46 µM; in the assay on CCRF-CEM leukemia, 3.44 µM; with BT-549 breast it was 6.22 µM.

For the compound `CCCN=C1S/C(=C/c2ccc(OC)c(OC)c2)C(=O)N1c1ccccc1`, the TGI in the assay on MCF7 breast is > 100 µM; in the assay on HCT-15 colon, > 100 µM; in the assay on OVCAR-5 ovarian it was > 100 µM; with OVCAR-4 ovarian it was 80.6 µM; with U251 CNS, 38.7 µM; in the assay with UACC-257 melanoma, > 100 µM. In addition, the TGI with NCI-H23 lung, in the assay with MDA-MB-435, with K-562 leukemia, in the assay on T-47D breast, in the assay with COLO 205 colon and in the assay on MOLT-4 leukemia was > 100 µM throughout. Moreover, the TGI in the assay on CAKI-1 renal is > 100 µM; with OVCAR-8 ovarian, > 100 µM; in the assay with MDA-MB-231 breast, 92.6 µM; in the assay with PC-3 prostate, > 100 µM; in the assay on CCRF-CEM leukemia it was > 100 µM; in the assay with BT-549 breast, > 100 µM.

For the compound `N#CCCN(CCC#N)c1ccc(/C=C2\N=C(c3ccccc3)N(NC(=O)c3ccncc3)C2=O)cc1`, the TGI in the assay with MCF7 breast, in the assay with HCT-15 colon, in the assay on OVCAR-5 ovarian, in the assay with OVCAR-4 ovarian, in the assay with U251 CNS and in the assay on UACC-257 melanoma was > 100 µM each time. In addition, the TGI in the assay with MDA-MB-435, in the assay on K-562 leukemia, with T-47D breast, with COLO 205 colon, in the assay with MOLT-4 leukemia and in the assay on OVCAR-8 ovarian was > 100 µM throughout. Further, the TGI in the assay with MDA-MB-231 breast, in the assay with PC-3 prostate and in the assay on BT-549 breast was > 100 µM throughout.

For the compound `O=C(CN1c2ccccc2Sc2ccccc21)n1cnc2ccccc21`, the TGI in the assay with SNB-75 CNS, with MCF7 breast, with HCT-15 colon, with OVCAR-5 ovarian, with OVCAR-4 ovarian and in the assay on U251 CNS was > 100 µM in each case. The TGI with UACC-257 melanoma, in the assay with NCI-H23 lung, with MDA-MB-435, in the assay with K-562 leukemia, in the assay on T-47D breast and in the assay with COLO 205 colon was > 100 µM each time. The TGI with MOLT-4 leukemia, with OVCAR-8 ovarian, in the assay on MDA-MB-231 breast, with PC-3 prostate, in the assay on CCRF-CEM leukemia and with BT-549 breast was > 100 µM in each case.

Regarding `CCC1c2[nH]c3ccccc3c2C[C@H]2C(=O)NC(Cc3ccccc3)C(=O)N12` (stereo partly drawn), the TGI with MCF7 breast is > 100 µM; in the assay on HCT-15 colon, > 100 µM; in the assay on OVCAR-5 ovarian it was 65.7 µM; with OVCAR-4 ovarian it was > 100 µM; in the assay with U251 CNS it was 56.3 µM; in the assay on UACC-257 melanoma, 49.6 µM. Moreover, the TGI in the assay on NCI-H23 lung was > 100 µM; with MDA-MB-435, 43.8 µM; with K-562 leukemia, > 100 µM; in the assay with T-47D breast, 73.1 µM; in the assay on COLO 205 colon it was 39 µM; in the assay on MOLT-4 leukemia, 56.9 µM. In addition, the TGI was 98.8 µM in the assay on CAKI-1 renal; > 100 µM with OVCAR-8 ovarian; 46.2 µM in the assay with MDA-MB-231 breast; 58.2 µM in the assay with PC-3 prostate; 62.4 µM in the assay on BT-549 breast.

For `COC(=O)C(CCCCNC(=O)OCc1ccccc1)NC(=O)C(CCC(=O)OCc1ccccc1)NC(=O)OC(C)(C)C` (stereo not drawn) (Boc-Glu(OBn)-Lys(Cbz)-OMe; configuration not given here), the TGI in the assay with SNB-75 CNS, in the assay with MCF7 breast, with HCT-15 colon, in the assay with OVCAR-5 ovarian, in the assay with OVCAR-4 ovarian and in the assay with U251 CNS was > 100 µM throughout. The TGI in the assay with NCI-H23 lung, in the assay on MDA-MB-435, in the assay on K-562 leukemia, with T-47D breast, with COLO 205 colon and in the assay with MOLT-4 leukemia was > 100 µM throughout. In addition, the TGI in the assay with CAKI-1 renal, with OVCAR-8 ovarian, in the assay with MDA-MB-231 breast, with PC-3 prostate and with BT-549 breast was > 100 µM in each case.

In the case of `CC(=O)/C(=C\n1c(=S)[nH]c2ccc([N+](=O)[O-])cc21)C(=O)Nc1ccccc1C`, the TGI with MCF7 breast, with HCT-15 colon, in the assay with OVCAR-5 ovarian, in the assay with OVCAR-4 ovarian, with U251 CNS and with UACC-257 melanoma was > 100 µM in each case. In addition, the TGI in the assay on NCI-H23 lung, in the assay on MDA-MB-435, in the assay with K-562 leukemia, in the assay on T-47D breast, with COLO 205 colon and in the assay with MOLT-4 leukemia was > 100 µM in each case. For the same compound, the TGI with CAKI-1 renal, in the assay with OVCAR-8 ovarian, with MDA-MB-231 breast, in the assay on PC-3 prostate, with CCRF-CEM leukemia and with BT-549 breast was > 100 µM each time.

As to `O=C(N/N=C1\CCc2ccccc21)N/N=C1\CCc2ccccc21`, the TGI with SNB-75 CNS, in the assay on MCF7 breast, in the assay on HCT-15 colon, in the assay on OVCAR-5 ovarian, with U251 CNS and in the assay on UACC-257 melanoma was > 100 µM in each case. The TGI in the assay on NCI-H23 lung, in the assay on MDA-MB-435, in the assay with K-562 leukemia, with T-47D breast, with COLO 205 colon and in the assay with MOLT-4 leukemia was > 100 µM throughout. In addition, the TGI in the assay with CAKI-1 renal was > 100 µM; in the assay on OVCAR-8 ovarian, > 100 µM; in the assay with MDA-MB-231 breast, 29.4 µM; with PC-3 prostate, > 100 µM; in the assay with CCRF-CEM leukemia it was > 100 µM; in the assay with BT-549 breast, > 100 µM.

Values taken from PubChem BioAssay (NCI).
